From patent publication US20260132128A1, “COMPOUND FOR RECOVERING P53 MUTATION FUNCTION AND USE THEREOF” (SHENZHEN ZHONGGE BIOLOGICAL TECHNOLOGY CO., LTD., priority 2022, published 2026)
Marks after values point to notes of the source that are not given here.

Tests used:
[1] = biological target: T1, p53 Y220C (Homo sapiens, UniProt P04637, P309S/R273H/Y220C); test: DNA binding test (HTRF): binding of P53Y220C protein to DNA; assay type: biochemical; conditions: HTRF, activation of p53 Y220C (aa 94-312) binding to biotin DNA
T1 construct: a truncated mutant containing only amino acids 94-312 of p53; made in house; host or cells: E. coli
Description: (§1) In order to detect the ability of the aforementioned compounds to increase the binding of P53Y220C protein to DNA, the binding activity of p53 Y220C was measured by homogeneous time-resolved fluorescence (HTRF). Recombinant His-tagged p53 Y220C for HTRF measurement was expressed in bacteria E. coli. The recombinant protein was a truncated mutant containing only amino acids 94-312 of p53, and its sequence was […] […] VEGNLR […] TFRh[…] […]. The sense strand of the DNA double strand was 5′-[…]-3′, with a biotin tag at the 5′ end for activity assay, and the antisense strand was 5′-[…]-3′ 40 mL of assay buffer (20 mM Tris HCL, pH 7.5, 50 mM NaCl, 2 mM MgCl2, 0.02% Tween 20, 0.01% BSA, 1 mM DTT) was prepared. 10 mM compound was prepared and subjected to 3-fold dilution to obtain 10 dose gradient dilutions of the compound. 20 nL of the compound was added to a 384-well assay plate (PerkinElmer 6007299) using an Echo 655 Liquid Handler. P53Y220C protein was dissolved in assay buffer to reach a final concentration of 150 nM, and 5 μL thereof was added to each well, and incubated at room temperature for 5 min. DNA was dissolved in assay buffer to reach a final concentration of 150 nM, and 5 μL thereof was added to each well, and incubated at room temperature for 15 min. Anti 6HIS-XL665 (Cisbio 61HISXLB) was dissolved in assay buffer to reach a final concentration of 20 nM, and 5 μL thereof was added to each well. Streptavidin-Eu cryptate (Cisbio 610SAKLA) was dissolved in assay buffer to reach a final concentration of 0.625 nM, and 5 μL thereof was added to each well, and incubated at 27° C. for 1 hour. The plate was then read for signal values on an Envision (PerkinElmer 2105-0020) plate reader at 665 nm and 615 nm, respectively. […] Activation rate={(A-C)/(C)}*100%, A=(signal value at 665 nm/signal value at 615 nm); C=average signal of negative control (wherein, negative control referred to 0.1% DMSO).

[2] = biological target: T2, p53 Y220C (Homo sapiens, UniProt P04637, Y220C); test: as above; assay type: biochemical; conditions: multiple ratio of EC50 of the compound to the reference compound, DNA binding test
T2 construct: a truncated mutant containing only amino acids 94-312 of p53; made in house; host or cells: E. coli
Description: as §1

[3] = tested on: NUGC-3 cells; test: NUGC-3 cell proliferation assay (CTG); assay type: cell-based, human; conditions: for GI50: 6 days, CTG; for Compound GI50 (nM)/Reference compound GI50 (nM): multiple ratio of GI50 of the compound to the reference compound
Description: In order to detect the inhibitory effect of the aforementioned compounds on the proliferation ability of NUGC-3 cells, 250 NUGC-3 cells (Nanjing Cobioer Biosciences Co., Ltd., CBP60492) were seeded into a 384-well plate (Corning 3765), 35 μL per well, and incubated overnight in a constant temperature incubator at 37° C. and 5% CO2. Then, 40 nL of the compound was added to the 384-well plate using an Echo 655 Liquid Handler, with a maximum final concentration of 10 μM, 1:3 serial dilutions, and a total of 10 doses. The culture was performed at 37° C. and 5% CO2 for 6 days. The plate was taken out from the incubator and equilibrated at room temperature for 10 minutes. 20 μL of CTG (Promage G7572) was added to each well of the plate according to the platemap. The plate was centrifuged at 1000 rpm for 1 min. The lysis of cells was induced by mixing on a shaker for 2 min. The plate was centrifuged at 1000 rpm for 1 min. Incubation was performed at room temperature for 10 min to stabilize luminescence signals. Luminescence values were recorded by Envision (PerkinElmer 2105-0020). GraphPad 9.0 was used to fit the inhibition rate and compound concentration into a nonlinear regression curve (dose response-variable slope) to calculate GI50, inhibition rate={1−(A−B)/(C−B)}*100%, A=signal value of compound; B=average signal of blank control; C=average signal of negative control (wherein negative control was 0.1% DMSO).

EC50 [1] [nM]	Structure (SMILES)	Compound EC50 (nM)/Reference compound EC50 (nM) [2]	GI50 ([3]; Homo sapiens, NUGC-3, 144 h) [nM]	Compound GI50 (nM)/Reference compound GI50 (nM) [3]	GI50 [3] [nM]
< 100	[2H]C([2H])([2H])NC(=O)c1ccc(NCC#Cc2cc3c(NC4CCC(N5CCOCC5)CC4F)cccn3c2CC(F)(F)F)c(OC([2H])([2H])[2H])c1 (single isomer, unassigned) [Compound 73d]	B (B: EC50 of the reference compound<EC50 of the compound≤3.0*EC50 of the reference compound)	< 1000	A (A: GI50 of the compound ≤ GI50 of the reference compound)	
100 to 500	CNC(=O)c1ccc(NCC#Cc2nc3c(NC4CCN(CC(O)COC)CC4)cccn3c2CC(F)(F)F)c(OC)c1 (stereo not shown) [Compound 7]	C (C: EC50 of the compound≥3*EC50 of the reference compound)	1000 to 5000	C (C: GI50 of the compound ≥ 3 * GI50 of the reference compound)	
100 to 500	COCCNC(=O)c1ccc(NCC#Cc2nc3c(NC4CCN(C)CC4)cccn3c2CC(F)(F)F)c(OC)c1 [Compound 30]	C (C: EC50 of the compound≥3*EC50 of the reference compound)	1000 to 5000	C (C: GI50 of the compound ≥ 3 * GI50 of the reference compound)	
< 100	[2H]C([2H])([2H])NC(=O)c1ccc(NCC#Cc2cc3c(NC4CCC(N5CC6(COC6)C5)CC4F)cccn3c2CC(F)(F)F)c(OC2CC2)c1 (stereo not shown) [Compound 76d]	A (A: EC50 of the compound≤EC50 of the reference compound)	< 1000	A (A: GI50 of the compound ≤ GI50 of the reference compound)	
100 to 500	COc1cc(P(C)(C)=O)ccc1NCC#Cc1nc2c(N[C@@H]3CCN(C)C[C@@H]3F)cccn2c1CC(F)(F)F [Compound 14]	B (B: EC50 of the reference compound<EC50 of the compound≤3.0*EC50 of the reference compound)	1000 to 5000	B (B: GI50 of the reference compound < GI50 of the compound ≤ 3.0 * GI50 of the reference compound)	
< 100	CNC(=O)c1ccc(NCC#Cc2nc3c(NC4CCC(N5CC6(COC6)C5)CC4F)cccn3c2CC(F)(F)F)c(OC)c1 (single isomer, unassigned) [Compound 35-6f]	B (B: EC50 of the reference compound<EC50 of the compound≤3.0*EC50 of the reference compound)		C (C: GI50 of the compound ≥ 3 * GI50 of the reference compound)	1000 to 5000
< 100	COc1cc(S(=N)(=O)C2CC2)ccc1NCC#Cc1cc2c(NC3CCN(C)CC3F)cccc2n1CC(F)(F)F (single isomer, unassigned) [Compound 39c]	B (B: EC50 of the reference compound<EC50 of the compound≤3.0*EC50 of the reference compound)		A (A: GI50 of the compound ≤ GI50 of the reference compound)	
100 to 500	CNC(=O)c1ccc(NCC#Cc2nc3c(NC4CCC(F)(F)CC4)cccn3c2CC(F)(F)F)c(OC)c1 [Compound 6]	C (C: EC50 of the compound≥3*EC50 of the reference compound)	≥ 5000	C (C: GI50 of the compound ≥ 3 * GI50 of the reference compound)	
100 to 500	COc1cc(S(C)(=N)=O)ccc1NCC#Cc1nc2c(NC3CCN(C)CC3)cccn2c1CC(F)(F)F (stereo not shown) [Compound 15]	C (C: EC50 of the compound≥3*EC50 of the reference compound)	< 1000	C (C: GI50 of the compound ≥ 3 * GI50 of the reference compound)	
< 100	COCCNC(=O)c1ccc(NCC#Cc2nc3c(N[C@@H]4CC[C@@H](N5CC6(COC6)C5)C[C@@H]4F)cccn3c2CC(F)(F)F)c(OC)c1 [Compound 52]	A (A: EC50 of the compound≤EC50 of the reference compound)		C (C: GI50 of the compound ≥ 3 * GI50 of the reference compound)	
< 100	COc1cc(S(=N)(=O)C2CC2)ccc1NCC#Cc1cc2c(NC3CCN(C)CC3F)cccc2n1CC(F)(F)F (single isomer, unassigned) [Compound 39d]	A (A: EC50 of the compound≤EC50 of the reference compound)		A (A: GI50 of the compound ≤ GI50 of the reference compound)	
< 100	CNC(=O)c1cc(OC)c(NCC#Cc2nc3c(N[C@H]4CC[C@H](N5CC6(COC6)C5)CC4)cccn3c2CC(F)(F)F)cc1F [Compound 27]	B (B: EC50 of the reference compound<EC50 of the compound≤3.0*EC50 of the reference compound)		C (C: GI50 of the compound ≥ 3 * GI50 of the reference compound)	
100 to 500	CNC(=O)c1ccc(NCC#Cc2nc3c(NC4CCC(N5CC6(COC6)C5)CC4F)cccn3c2CC(F)(F)F)c(OC)c1 (single isomer, unassigned) [Compound 35-6e]	C (C: EC50 of the compound≥3*EC50 of the reference compound)		C (C: GI50 of the compound ≥ 3 * GI50 of the reference compound)	≥ 5000
500 to 1000	CNC(=O)c1ccc(NCC#Cc2nc3c(NC4CCN(C(C)C)CC4F)cccn3c2CC(F)(F)F)c(OC)c1 (stereo not shown) [Compound 20]	C (C: EC50 of the compound≥3*EC50 of the reference compound)	1000 to 5000	C (C: GI50 of the compound ≥ 3 * GI50 of the reference compound)	
< 100	[2H]C([2H])([2H])NC(=O)c1ccc(NCC#Cc2cc3c(NC4CCC(N5CC6(COC6)C5)CC4F)cccn3c2CC(F)(F)F)c(OCF)c1 (stereo not shown) [Compound 78d]	A (A: EC50 of the compound≤EC50 of the reference compound)	< 1000	A (A: GI50 of the compound ≤ GI50 of the reference compound)	
100 to 500	CN1CCC(Nc2cccn3c(CC(F)(F)F)c(-c4nnc(CNC(=O)c5cnn(Cc6ccccc6)c5)s4)nc23)CC1 [Compound 23]	B (B: EC50 of the reference compound<EC50 of the compound≤3.0*EC50 of the reference compound)	1000 to 5000	C (C: GI50 of the compound ≥ 3 * GI50 of the reference compound)	
100 to 500	CN1CCC(Nc2cccn3c(CC(F)(F)F)c(-c4ncc(CNC(=O)c5ccn(C(C)(C)C)c5)s4)nc23)CC1 [Compound 24]	C (C: EC50 of the compound≥3*EC50 of the reference compound)	1000 to 5000	C (C: GI50 of the compound ≥ 3 * GI50 of the reference compound)	
100 to 500	COc1cc(C#N)ccc1NCC#Cc1nc2c(NC3CCN(C)CC3)cccn2c1CC(F)(F)F [Compound 11]	B (B: EC50 of the reference compound<EC50 of the compound≤3.0*EC50 of the reference compound)		C (C: GI50 of the compound ≥ 3 * GI50 of the reference compound)	
